Tested on: SEM cells
Assay: cell viability relative to DMSO control; higher = less cytotoxic
Settings: 48 h
Method in brief: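 Viability was expressed as a per-plate percentage of DMSO wells, with cell-free wells as background. Leukemia cells (NOMO1 or SEM at 500 cells/well, P12-Ichikawa at 1000 cells/well) were adapted for at least four passages in each medium and seeded in 1536-well plates (5 μl). Library compounds in DMSO were pin-dosed over an 11-point threefold series from 47 μM to 0.79 nM, and CellTiter-Glo One luminescence was read after 48 h at 37°C.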

[1] = HPLM + 10% dialyzed FBS, 0.000781 µM
[2] = HPLM + 10% dialyzed FBS, 0.00234 µM
[3] = HPLM + 10% dialyzed FBS, 0.00702 µM
[4] = HPLM + 10% dialyzed FBS, 0.0211 µM
[5] = HPLM + 10% dialyzed FBS, 0.0632 µM
[6] = HPLM + 10% dialyzed FBS, 0.19 µM
[7] = HPLM + 10% dialyzed FBS, 0.569 µM
[8] = HPLM + 10% dialyzed FBS, 1.71 µM
[9] = HPLM + 10% dialyzed FBS, 5.12 µM
[10] = HPLM + 10% dialyzed FBS, 15.4 µM
[11] = HPLM + 10% dialyzed FBS, 46.1 µM
[12] = RPMI 5 mM glucose + 10% FBS, 0.000781 µM
[13] = RPMI 5 mM glucose + 10% FBS, 0.00234 µM
[14] = RPMI 5 mM glucose + 10% FBS, 0.00702 µM
[15] = RPMI 5 mM glucose + 10% FBS, 0.0211 µM
[16] = RPMI 5 mM glucose + 10% FBS, 0.0632 µM
[17] = RPMI 5 mM glucose + 10% FBS, 0.19 µM
[18] = RPMI 5 mM glucose + 10% FBS, 0.569 µM
[19] = RPMI 5 mM glucose + 10% FBS, 1.71 µM
[20] = RPMI 5 mM glucose + 10% FBS, 5.12 µM
[21] = RPMI 5 mM glucose + 10% FBS, 15.4 µM
[22] = RPMI 5 mM glucose + 10% FBS, 46.1 µM
[23] = RPMI 5 mM glucose + 10% dialyzed FBS, 0.000781 µM
[24] = RPMI 5 mM glucose + 10% dialyzed FBS, 0.00234 µM
[25] = RPMI 5 mM glucose + 10% dialyzed FBS, 0.00702 µM
[26] = RPMI 5 mM glucose + 10% dialyzed FBS, 0.0211 µM
[27] = RPMI 5 mM glucose + 10% dialyzed FBS, 0.0632 µM
[28] = RPMI 5 mM glucose + 10% dialyzed FBS, 0.19 µM
[29] = RPMI 5 mM glucose + 10% dialyzed FBS, 0.569 µM
[30] = RPMI 5 mM glucose + 10% dialyzed FBS, 1.71 µM
[31] = RPMI 5 mM glucose + 10% dialyzed FBS, 5.12 µM
[32] = RPMI 5 mM glucose + 10% dialyzed FBS, 15.4 µM
[33] = RPMI 5 mM glucose + 10% dialyzed FBS, 46.1 µM

SMILES | cell viability [1] | cell viability [2] | cell viability [3] | cell viability [4] | cell viability [5] | cell viability [6] | cell viability [7] | cell viability [8] | cell viability [9] | cell viability [10] | cell viability [11] | cell viability [12] | cell viability [13] | cell viability [14] | cell viability [15] | cell viability [16] | cell viability [17] | cell viability [18] | cell viability [19] | cell viability [20] | cell viability [21] | cell viability [22] | cell viability [23] | cell viability [24] | cell viability [25] | cell viability [26] | cell viability [27] | cell viability [28] | cell viability [29] | cell viability [30] | cell viability [31] | cell viability [32] | cell viability [33]
O=C(c1ccc(C(=O)N2CCC(N3CCCC3)CC2)c(Nc2ccccc2)c1)N1CCC(N2CCCC2)CC1 | 119% | 111% | 115% | 94.8% | 116% | 113% | 107% | 107% | 103% | 98.7% | 96.4% | 112% | 106% | 109% | 104% | 105% | 115% | 117% | 102% | 89% | 102% | 103% | 80.7% | 91.2% | 102% | 104% | 98% | 102% | 104% | 112% | 101% | 88.5% | 82.6%
Oc1ccc(C2CNCCc3c2cc(O)c(O)c3Cl)cc1 (stereo not drawn) | 98% | 103% | 90% | 91.2% | 91.5% | 104% | 90.8% | 48.5% | 102% | 89.5% | 108% | 83% | 95% | 97.2% | 96.6% | 84.6% | 97.5% | 90.8% | 47.5% | 103% | 91.4% | 94.6% | 81.9% | 93.1% | 86.6% | 96.6% | 76.9% | 112% | 100% | 70.2% | 114% | 101% | 102%
COC(=O)Nc1nc2cc(Sc3ccccc3)ccc2[nH]1 | 107% | 108% | 119% | 115% | 124% | 130% | 100% | 102% | 22.6% | 24.1% | 24.2% | 119% | 121% | 131% | 129% | 113% | 114% | 93.2% | 91.6% | 15.3% | 18.6% | 18.2% |  |  |  |  |  |  |  |  |  |  | 
COC1=C(CC=C(C)C)C2=C(\C=C/C(=O)O2)C=C1 | 83.3% | 79.7% | 80.4% | 89.5% | 76.9% | 90.1% | 74.6% | 98.6% | 71.8% | 71.1% | 58.5% | 93.2% | 103% | 95.4% | 117% | 102% | 112% | 100% | 81.4% | 77.5% | 65.9% | 53.6% | 108% | 118% | 121% | 103% | 99.7% | 113% | 115% | 91.8% | 85% | 90.2% | 54.2%
CN1CCN(CC1)C/2=N/C3=CC=CC=C3NC4=C2C=C(C)S4 | 91% | 105% | 114% | 106% | 102% | 119% | 115% | 114% | 117% | 119% | 105% | 99.3% | 97.4% | 87.4% | 88.6% | 96.2% | 104% | 95.5% | 94.5% | 101% | 94.2% | 88.6% | 95.6% | 99.3% | 105% | 89.4% | 97.1% | 118% | 112% | 110% | 96% | 100% | 93.3%
CN1C(=O)\C(=C/C2=C1N=C(NC3CCOCC3)N=C2)OC4=C(F)C=C(F)C=C4 | 99.6% | 97.4% | 98.4% | 102% | 99.1% | 90.3% | 93.3% | 92% | 78.9% | 92.7% | 45.6% | 112% | 100% | 125% | 112% | 105% | 112% | 121% | 105% | 97.1% | 115% | 45.6% | 93.3% | 106% | 94.8% | 68.2% | 93.8% | 96.9% | 95.9% | 92% | 96.2% | 88.3% | 42.9%
COc1ccc(-c2cc3c(C)nc(N)nc3n([C@H]3CC[C@H](OCCO)CC3)c2=O)cn1 | 99.4% | 91.8% | 84.6% | 77.2% | 70.5% | 64.9% | 47% | 32.6% | 24.3% | 6.37% | 1% | 105% | 105% | 97.8% | 99.8% | 79.8% | 62.1% | 55.3% | 29.1% | 29.6% | 9.56% | 1.08% | 79.7% | 86.1% | 75.4% | 75.3% | 69.7% | 58.9% | 46.4% | 34.7% | 29.3% | 14.6% | 1.67%
CN(C)[C@H]\1[C@@H]2[C@@H](O)[C@H]3\C(=C(O)/[C@]2(O)C(=O)\C(=C1O)C(N)=O)C(=O)C4=C(C=CC=C4O)[C@@]3(C)O | 100% | 95.3% | 99.4% | 98.8% | 98.9% | 106% | 105% | 103% | 117% | 106% | 95.7% | 102% | 123% | 121% | 125% | 115% | 114% | 129% | 121% | 104% | 133% | 118% | 113% | 121% | 121% | 118% | 125% | 124% | 115% | 114% | 122% | 118% | 118%
